Test results: article PMC6130710 (Pharmaceutical Biology, 2017)
Values after ≈ are worked out from the molar mass of the structure shown. Like-named read-outs stand apart in the source and are kept apart here.

How the values were obtained:
[1] = molecular target: rat intestinal α-glucosidase (maltase); assay: rat intestinal α-glucosidase (maltase) inhibition assay; format: biochemical; conditions: rat intestine; for IC50: compounds, Table 2
Protocol: (§1) 1 D and 2 D NMR spectra were recorded on a Bruker 400 AVANCE spectrometer, and the chemical shifts were reported in parts per million (ppm) using tetramethylsilane (TMS) as the internal standard. Melting points were determined on a Fisher-Johns Melting Point apparatus. Adsorbents such as silica gel 60 (Merck) were used for column and radial (chromatotron model 7924 T, Harrison Research) chromatographies. Merck silica gel 60F254 plates were used for TLC. HRESIMS spectra were obtained using a Bruker MICROTOF model mass spectrometer. UV-visible absorption spectra were recorded using a UV-2550 (SHIMADZU) UV-Vis spectrometer (Shimadzu, Kyoto, Japan). α-Glucosidase (EC 3.2.1.20) from Saccharomyces cerevisiae and 4-nitrophenyl-α-D-glucopyranoside (p-NPG) were obtained from Sigma-Aldrich (St. Louis, MO). Acarbose was obtained from Bayer Vitol Leverkusen, Germany. Rat intestinal acetone powder was supplied by Sigma Aldrich.
(§2) Moreover, previous procedure (Damsud et al. [2013]) was also applied to determine inhibitory activity of isolated compounds against intestinal α-glucosidases (maltase and sucrase). Briefly, 10 μL of the test sample and substrate solution (maltose: 10 mM, 20 μL; sucrose: 100 mM, 20 μL, respectively) in 0.1 M phosphate buffer (pH 6.9) were incubated at 37 °C (20 min for maltase and 60 min for sucrase). The mixture was discontinued in boiling water for 10 min, and glucose released from the reaction was converted to quinoneimine using a commercial Glu Kit (Human, Germany). The absorbance of final product was determined at 503 nm, and percent inhibition was calculated using the aforementioned equation.

[2] = DPPH radical scavenging activity
Protocol: The antioxidant activity of the extract was evaluated through the free radical scavenging effect on 2,2′-diphenyl-1-picrylhydrazyl (DPPH) (Sigma) radical as previously reported (Yen & Hsieh [1997]) with slight modifications. 100 μL of 0.10 mM DPPH ethanolic solution was added to 20 μL of the sample with various concentrations. The mixture was thoroughly mixed and kept in the dark for 30 min. The absorbance was measured at 517 nm using a Sunrise microplate reader spectrophotometer.

[3] = molecular target: T1, α-Glucosidase (EC 3.2.1.20) from Saccharomyces cerevisiae (Baker's yeast) (Saccharomyces cerevisiae, UniProt P53341); assay: biochemical
T1 construct: purchased Sigma-Aldrich (St. Louis, MO)
T1 sequence (P53341 whole entry): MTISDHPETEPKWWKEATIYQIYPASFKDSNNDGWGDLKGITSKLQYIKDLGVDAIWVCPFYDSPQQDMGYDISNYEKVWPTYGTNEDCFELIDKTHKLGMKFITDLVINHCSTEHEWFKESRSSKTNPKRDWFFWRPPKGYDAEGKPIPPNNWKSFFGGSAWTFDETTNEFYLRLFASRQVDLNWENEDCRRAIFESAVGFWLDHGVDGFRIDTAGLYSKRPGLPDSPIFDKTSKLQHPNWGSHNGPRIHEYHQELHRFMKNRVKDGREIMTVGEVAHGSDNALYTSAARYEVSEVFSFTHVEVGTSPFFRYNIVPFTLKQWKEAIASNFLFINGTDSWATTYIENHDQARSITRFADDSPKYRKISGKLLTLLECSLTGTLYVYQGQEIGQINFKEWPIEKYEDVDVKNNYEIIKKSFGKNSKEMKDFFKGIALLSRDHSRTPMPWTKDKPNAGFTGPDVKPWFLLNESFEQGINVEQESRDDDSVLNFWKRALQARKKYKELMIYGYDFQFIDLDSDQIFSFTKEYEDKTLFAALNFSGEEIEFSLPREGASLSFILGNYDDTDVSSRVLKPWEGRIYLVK
Protocol: as §1, with “Acarbose was obtained from Bayer Vitol Leverkusen, Germany.” left out
The evaluation of the inhibitory activity of all compounds against yeast and rat intestinal (maltase and sucrase) α-glucosidases was applied from a previous procedure (Damsud et al. [2013]). The inhibitory effect against yeast α-glucosidase was determined using the protocol previously described. Briefly, 10 μL of sample was mixed with α-glucosidase (0.1 U/mL) in 1 mM phosphate buffer (pH 6.9) and incubated at 37 °C for 10 min. The reaction mixture was added with 1 mM p-nitrophenyl-α-D-glucopyranoside (PNPG, 50 μL) followed by additional 20 min incubation. p-Nitrophenoxide liberated from the reaction was quantified by a microplate reader (UV 405 nm) after the addition of 1 M Na2CO3 (100 μL). The percent inhibition was deduced using the following equation. (A0-A1)/A0×100 where A1 and A0 are absorbances with and without the sample, respectively.

[4] = molecular target: T2, rat intestinal α-glucosidase (sucrase) (Rattus norvegicus, UniProt P23739); assay: rat intestinal α-glucosidase (sucrase) inhibition assay; format: biochemical; conditions: rat intestine; compounds, Table 2
T2 construct: tissue Sigma Aldrich; host or cells: rat intestinal acetone powder
T2 sequence (P23739 1014-1841 limits assumed): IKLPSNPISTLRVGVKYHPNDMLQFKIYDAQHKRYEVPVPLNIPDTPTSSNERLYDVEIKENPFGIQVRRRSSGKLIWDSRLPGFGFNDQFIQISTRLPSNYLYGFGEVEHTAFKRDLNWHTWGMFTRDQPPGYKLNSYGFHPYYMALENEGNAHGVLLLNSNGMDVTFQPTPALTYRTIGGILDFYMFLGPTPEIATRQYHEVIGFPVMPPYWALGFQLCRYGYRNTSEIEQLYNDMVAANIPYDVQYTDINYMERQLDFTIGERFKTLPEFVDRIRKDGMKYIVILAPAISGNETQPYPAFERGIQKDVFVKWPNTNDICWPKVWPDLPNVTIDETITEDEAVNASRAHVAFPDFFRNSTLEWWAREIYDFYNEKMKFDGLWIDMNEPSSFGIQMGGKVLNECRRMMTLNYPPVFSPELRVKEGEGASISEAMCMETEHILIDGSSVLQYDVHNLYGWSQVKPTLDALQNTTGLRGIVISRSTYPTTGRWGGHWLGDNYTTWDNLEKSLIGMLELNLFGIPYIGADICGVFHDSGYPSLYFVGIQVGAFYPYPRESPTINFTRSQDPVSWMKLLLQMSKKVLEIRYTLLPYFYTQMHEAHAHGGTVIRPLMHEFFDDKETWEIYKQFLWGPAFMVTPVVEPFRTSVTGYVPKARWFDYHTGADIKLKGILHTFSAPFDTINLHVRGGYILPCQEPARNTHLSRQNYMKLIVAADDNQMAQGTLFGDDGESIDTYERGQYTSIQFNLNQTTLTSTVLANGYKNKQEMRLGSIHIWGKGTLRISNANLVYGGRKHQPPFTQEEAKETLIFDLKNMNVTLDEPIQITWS
T2 sequence (P23739 1-1013 partner limits assumed): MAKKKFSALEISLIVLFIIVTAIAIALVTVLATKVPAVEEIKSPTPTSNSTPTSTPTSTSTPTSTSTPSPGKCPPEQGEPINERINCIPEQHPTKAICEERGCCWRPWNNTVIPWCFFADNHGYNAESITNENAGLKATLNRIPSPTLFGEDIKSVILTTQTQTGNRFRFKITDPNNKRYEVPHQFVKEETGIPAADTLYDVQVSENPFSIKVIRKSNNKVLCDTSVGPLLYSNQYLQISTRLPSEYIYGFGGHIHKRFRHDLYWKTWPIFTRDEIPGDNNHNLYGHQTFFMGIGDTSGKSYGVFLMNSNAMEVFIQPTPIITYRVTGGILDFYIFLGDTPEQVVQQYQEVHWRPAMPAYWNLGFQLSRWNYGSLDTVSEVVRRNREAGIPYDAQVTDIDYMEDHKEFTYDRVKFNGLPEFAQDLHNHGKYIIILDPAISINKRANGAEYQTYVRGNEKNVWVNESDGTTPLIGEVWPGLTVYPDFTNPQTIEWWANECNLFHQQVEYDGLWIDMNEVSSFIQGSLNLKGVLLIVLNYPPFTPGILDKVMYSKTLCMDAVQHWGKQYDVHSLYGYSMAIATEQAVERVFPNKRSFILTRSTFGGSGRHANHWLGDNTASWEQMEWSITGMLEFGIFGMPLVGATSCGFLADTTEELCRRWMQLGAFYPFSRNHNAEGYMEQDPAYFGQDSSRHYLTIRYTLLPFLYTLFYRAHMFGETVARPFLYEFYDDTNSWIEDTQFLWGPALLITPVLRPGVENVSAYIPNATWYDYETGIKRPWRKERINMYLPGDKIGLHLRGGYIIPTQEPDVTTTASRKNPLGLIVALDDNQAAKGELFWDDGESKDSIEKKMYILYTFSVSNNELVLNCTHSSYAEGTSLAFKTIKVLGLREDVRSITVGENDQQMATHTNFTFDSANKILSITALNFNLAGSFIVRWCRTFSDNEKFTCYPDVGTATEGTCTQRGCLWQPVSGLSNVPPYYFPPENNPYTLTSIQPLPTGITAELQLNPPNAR
Protocol: as §1, with “Acarbose was obtained from Bayer Vitol Leverkusen, Germany.” left out
as §2

yeast α-glucosidase = molecular target: T3, yeast α-glucosidase (Saccharomyces cerevisiae, UniProt P53341); assay: enzyme kinetic study (Lineweaver–Burk plots) against yeast α-glucosidase; format: biochemical
T3 construct: purchased Sigma-Aldrich (St. Louis, MO)
T3 sequence (P53341 whole entry): as the sequence (P53341 whole entry) above
Description: Figure 2S. Lineweaver-Burk plots for inhibitory activity of compound 2 against yeast α- […]
Figure 3S. Secondary plot of slope vs [I] for deduction of Ki of compound 2 against yeast α- […]
Figure 4S. Secondary plot of intercept vs [I] for deduction of K′i of compound 2 against yeast […]
Figure 5S. The hydrophobic analysis of compounds 1 (A) and 2 (B). The H-bond interactions were shown as green dotted lines and the hydrophobic interactions with surrounding amino acids are shown as arcs with spokes radiating towards the inhibitor. These schematic diagrams were generated using LigPlot+ software (Laskowski & Swindells, 2011).
Ahmad FBH, Moghaddam MG, Basri M, Abdul Rahman MB. 2010. Anticancer activity of 3-O-acylated betulinic acid derivatives obtained by enzymatic synthesis. Biosci […]

[5] = IC50 Baker's yeast α-glucosidase, compounds, Table 2
[6] = compounds, Table 2, read-out: IC50 Baker's yeast α-glucosidase

C[C@H]1O[C@H](O[C@H]2[C@H](O)[C@@H](O)[C@@H](O[C@H]3[C@H](O)[C@@H](O)C(O)O[C@@H]3CO)O[C@@H]2CO)[C@H](O)[C@@H](O)[C@@H]1N[C@H]1C=C(CO)[C@@H](O)[C@H](O)[C@H]1O (stereo partly drawn) [Acarbose, reference compound]
IC50 [1]: 7.9 ± 0.94 µM
IC50 Maltase ([1]; fractions A-G, Table 1): 5.1 ± 940 µg/mL (≈ 7.9 µM)

Cc1cc(C(C)(C)C)c(O)c(C(C)(C)C)c1 [BHT, reference compound]
IC50 ([2]; compounds, Table 2): 328 ± 0.56 µM
IC50 DPPH ([2]; fractions A-G, Table 1): 72 ± 350 µg/mL (≈ 327 µM)

C=C(C)[C@@H]1CC[C@]2(C)CC[C@]3(C)[C@H](CC[C@@H]4[C@@]5(C)CC[C@H](O)C(C)(C)[C@@H]5CC[C@]43C)[C@@H]12 [Compound 1, lupeol]
IC50 [1]: > 3000 µM
IC50 [3, 5]: 0.0372 ± 0.00022 mM
IC50 ([3]; experimental IC50 yeast α-glucosidase, restated in mM in docking section): 0.037 mM
IC50 [4]: > 3000 µM
IC50 ([2]; compounds, Table 2): > 10000 µM
IC50 DPPH ([2]; compounds, Table 2): no activity

C=C(C)[C@@H]1CC[C@]2(C(=O)O)CC[C@]3(C)[C@H](CC[C@@H]4[C@@]5(C)CC[C@H](O)C(C)(C)[C@@H]5CC[C@]43C)[C@@H]12 [Compound 2, betunilic acid]
IC50 [1]: > 3000 µM
IC50 [3, 6]: 0.0163 ± 0.00203 mM
IC50 ([3]; restated in mM in docking section, read-out: experimental IC50 yeast α-glucosidase): 0.016 mM
mode of inhibition (yeast α-glucosidase; Lineweaver–Burk plots, 0.063 and 1.3 mM of inhibitor): mixed mode inhibitor
K'i (uncompetitive component, from intercept plot) (yeast α-glucosidase; secondary plot of intercept vs [I], Figure 4S): 0.019 mM
IC50 [4]: > 3000 µM
IC50 ([2]; compounds, Table 2): > 10000 µM
IC50 DPPH ([2]; compounds, Table 2): no activity

C=C(C)[C@@H]1CC[C@]2(C(=O)O)CC[C@]3(C)[C@H](CC[C@@H]4[C@@]5(C)CC[C@H](OC(C)=O)C(C)(C)[C@@H]5CC[C@]43C)[C@@H]12 [Compound 2a]
IC50 [1]: > 3000 µM
IC50 [3, 6]: 0.0281 ± 0.00076 mM
IC50 [4]: > 3000 µM
IC50 ([2]; compounds, Table 2): > 10000 µM

C=C(C)[C@@H]1CC[C@]2(C(=O)O)CC[C@]3(C)[C@H](CC[C@@H]4[C@@]5(C)CC[C@H](OC(=O)CC)C(C)(C)[C@@H]5CC[C@]43C)[C@@H]12 [Compound 2b]
IC50 [1]: > 3000 µM
IC50 [3, 6]: 0.0433 ± 0.00019 mM
IC50 [4]: > 3000 µM
IC50 ([2]; compounds, Table 2): > 10000 µM

C=C(C)[C@@H]1CC[C@]2(C(=O)O)CC[C@]3(C)[C@H](CC[C@@H]4[C@@]5(C)CC[C@H](OC(=O)CCC)C(C)(C)[C@@H]5CC[C@]43C)[C@@H]12 [Compound 2c]
IC50 [1]: > 3000 µM
IC50 [3, 6]: 0.158 ± 0.00122 mM
IC50 [4]: > 3000 µM
IC50 ([2]; compounds, Table 2): > 10000 µM

C=C(C)[C@@H]1CC[C@]2(C(=O)O)CC[C@]3(C)[C@H](CC[C@@H]4[C@@]5(C)CC[C@H](OC(=O)CCCC)C(C)(C)[C@@H]5CC[C@]43C)[C@@H]12 [Compound 2d]
IC50 [1]: > 3000 µM
IC50 [3, 6]: 0.269 ± 0.00322 mM
IC50 [4]: > 3000 µM
IC50 ([2]; compounds, Table 2): > 10000 µM

C=C(C)[C@@H]1CC[C@]2(C(=O)O)CC[C@]3(C)[C@H](CC[C@@H]4[C@@]5(C)CC[C@H](OC(=O)CCCCC)C(C)(C)[C@@H]5CC[C@]43C)[C@@H]12 [Compound 2e]
IC50 [1]: > 3000 µM
IC50 [3, 6]: 0.0721 ± 0.00154 mM
IC50 [4]: > 3000 µM
IC50 ([2]; compounds, Table 2): > 10000 µM

C=C(C)[C@@H]1CC[C@]2(C(=O)O)CC[C@]3(C)[C@H](CC[C@@H]4[C@@]5(C)CC[C@H](OC(=O)c6ccccc6)C(C)(C)[C@@H]5CC[C@]43C)[C@@H]12 [Compound 2f]
IC50 [1]: > 3000 µM
IC50 [3, 6]: 0.0731 ± 0.00096 mM
IC50 [4]: > 3000 µM
IC50 ([2]; compounds, Table 2): > 10000 µM

C=C(C)[C@@H]1CC[C@]2(C(=O)N(C(=O)NC3CCCCC3)C3CCCCC3)CC[C@]3(C)[C@H](CC[C@@H]4[C@@]5(C)CC[C@H](O)C(C)(C)[C@@H]5CC[C@]43C)[C@@H]12 [Compound 2g]
melting point: 193 to 194 °C
IC50 [1]: > 3000 µM
IC50 [3, 6]: 0.23 ± 0.00011 mM
IC50 [4]: > 3000 µM
IC50 ([2]; compounds, Table 2): > 10000 µM

C=C(C)[C@@H]1CC[C@]2(C(=O)N(C(=O)NC3CCCCC3)C3CCCCC3)CC[C@]3(C)[C@H](CC[C@@H]4[C@@]5(C)CC[C@H](OC(C)=O)C(C)(C)[C@@H]5CC[C@]43C)[C@@H]12 [Compound 2h]
IC50 [1]: > 3000 µM
IC50 [3, 6]: 0.281 ± 0.00089 mM
IC50 [4]: > 3000 µM
IC50 ([2]; compounds, Table 2): > 10000 µM

C=C(C)[C@@H]1CC[C@]2(C(=O)N(C(=O)NC3CCCCC3)C3CCCCC3)CC[C@]3(C)[C@H](CC[C@@H]4[C@@]5(C)CC[C@H](OC(=O)CC)C(C)(C)[C@@H]5CC[C@]43C)[C@@H]12 [Compound 2i]
IC50 [1]: > 3000 µM
IC50 [3, 6]: 0.368 ± 0.00164 mM
IC50 [4]: > 3000 µM
IC50 ([2]; compounds, Table 2): > 10000 µM

C=C(C)[C@@H]1CC[C@]2(C(=O)N(C(=O)NC3CCCCC3)C3CCCCC3)CC[C@]3(C)[C@H](CC[C@@H]4[C@@]5(C)CC[C@H](OC(=O)CCC)C(C)(C)[C@@H]5CC[C@]43C)[C@@H]12 [Compound 2j]
IC50 [1]: > 3000 µM
IC50 [3, 6]: > 0.6 mM
IC50 [4]: > 3000 µM
IC50 ([2]; compounds, Table 2): > 10000 µM

C=C(C)[C@@H]1CC[C@]2(C(=O)N(C(=O)NC3CCCCC3)C3CCCCC3)CC[C@]3(C)[C@H](CC[C@@H]4[C@@]5(C)CC[C@H](OC(=O)CCCC)C(C)(C)[C@@H]5CC[C@]43C)[C@@H]12 [Compound 2k]
IC50 [1]: > 3000 µM
IC50 [3, 6]: > 0.6 mM
IC50 [4]: > 3000 µM
IC50 ([2]; compounds, Table 2): > 10000 µM

C=C(C)[C@@H]1CC[C@]2(C(=O)N(C(=O)NC3CCCCC3)C3CCCCC3)CC[C@]3(C)[C@H](CC[C@@H]4[C@@]5(C)CC[C@H](OC(=O)CCCCC)C(C)(C)[C@@H]5CC[C@]43C)[C@@H]12 [Compound 2l]
IC50 [1]: > 3000 µM
IC50 [3, 6]: > 0.6 mM
IC50 [4]: > 3000 µM
IC50 ([2]; compounds, Table 2): > 10000 µM

COc1cc([C@H]2c3c(cc(OC)c(O)c3OC)C[C@@H](CO)[C@@H]2CO[C@@H]2O[C@H](CO)[C@@H](O)[C@H](O)[C@H]2O)cc(OC)c1O [Compound 4, (+)-lyoniresinol-3α-O-β-D-glucopyranoside]
IC50 [1]: 373 ± 1.05 µM
IC50 [3, 6]: > 0.6 mM
IC50 [4]: 1214 ± 2.01 µM
IC50 ([2]; compounds, Table 2): 3795 ± 0.42 µM

C[C@@H]1O[C@@H](O[C@H]2[C@H](Oc3c(-c4ccc(O)cc4)oc4cc(O)cc(O)c4c3=O)O[C@@H](C)[C@H](O)[C@H]2O)[C@H](O)[C@H](O)[C@H]1O [Compound 5, kaempferol-3-O-α-L-rhamnopyranosyl-(1→2)-α-L-rhamnopyrano side]
IC50 [1]: > 3000 µM
IC50 [3, 5]: > 0.6 mM
IC50 [4]: > 3000 µM
IC50 ([2]; compounds, Table 2): 6019 ± 1.36 µM

C[C@@H]1O[C@@H](O[C@H]2[C@H](Oc3c(-c4ccc(O)c(O)c4)oc4cc(O)cc(O)c4c3=O)O[C@@H](C)[C@H](O)[C@H]2O)[C@H](O)[C@H](O)[C@H]1O [Compound 6, horridin]
IC50 [1]: > 3000 µM
IC50 [3, 5]: > 0.6 mM
IC50 [4]: > 3000 µM
IC50 ([2]; compounds, Table 2): 42.8 ± 0.83 µM

O=C1O[C@H]([C@@H](O)CO)C(O)=C1O [Vitamin C, reference compound]
IC50 ([2]; compounds, Table 2): 158 ± 1.9 µM
IC50 DPPH ([2]; fractions A-G, Table 1): 28 ± 1560 µg/mL (≈ 159 µM)
